In US9763957B2, “Autotaxin inhibitors” (Novartis AG, priority 2013, dated 2017):

molecular target: Recombinant human ATX (Homo sapiens (Human), UniProt Q13822); assay: ATX inhibition assay (choline release, Amplex Red fluorescence); type: biochemical; conditions: ATX 10 nM, LPC 18:1 10 μM, 37° C., 20 min pre-incubation; mean of n≧2
Procedure: Reagents—LPC (oleoyl (18:1)) was purchased from Avanti Polar Lipids (Alabaster, Ala.) and solubilized in methanol to 20 mM. Amplex Red was obtained from Invitrogen Life Technologies (Paisley, UK) and dissolved in DMSO to 10 mM. Choline oxidase and horseradish peroxidase (HRP) were obtained from Sigma Aldrich (Dorset, UK) and dissolved in HBSS to 20 U/ml and 200 U/ml respectively. All reagents were stored at −20° C. in single use aliquots. All experimental measurements were performed in assay buffer made up immediately prior to use (HBSS, 0.01% BSA essentially fatty acid free).
PerkinElmer EnVision (Fluorescence Intensity/Absorbance Monochromator) or Tecan Infinite 200 PRO series plate reader was used to detect change in fluorescent intensity.
Assessing ATX inhibition—ATX activity was determined by measurement of released choline in reactions containing ATX (10 nM), choline oxidase (0.1 U/ml), HRP (100 U/ml), amplex red (50 μM) and LPC 18:1 (10 μM). Compounds of the invention were prepared as 10 point serial dilutions from 1 μM in duplicate and pre-incubated with ATX at 37° C. for 20 minutes prior to the addition of remaining reagents. The liberated choline was measured from changes in fluorescence intensity (λex 530 nm, λem 590 nm) of the product resurofin at 37° C. every 2 minutes over a 40-minute period. ATX activity was measured as a slope of the linear portion of the progress curve, typically between 14 to 24 minutes.
Data analysis—Slope data was exported to Graphpad prism (Graphpad software, San Diego, Calif.) where data was fitted to equation 1. Y=Bottom+(Top-Bottom)/(1+10^((Log IC50−X)*HillSlope)) Equation 1: […]

Row | Compound | IC50
1 | CNC(=O)COC1CCN(C(=O)/C=C/c2ccc(Cl)cc2Cn2nnc(C)n2)CC1 [Example 49.19, (E)-2-((1-(3-(4-Chloro-2-((5-methyl-2H-tetrazol-2-yl)methyl)phenyl)acryloyl)piperidin-4-yl)oxy)-N-methylacetamide] | 176 nM
2 | Cc1nnn(Cc2cc(Cl)ccc2/C=C/C(=O)N2CCN(Cc3noc(C)n3)C[C@H]2C)n1 [Example 104, (R,E)-3-(4-Chloro-2-((5-methyl-2H-tetrazol-2-yl)methyl)phenyl)-1-(2-methyl-4-((5-methyl-1,2,4-oxadiazol-3-yl)methyl)piperazin-1-yl)prop-2-en-1-one] | 3.9 nM
3 | Cc1nnn(Cc2cc(Cl)ccc2/C=C/C(=O)N2CCN(C(=O)c3ccco3)CC2)n1 [Example 49.20, (E)-3-(4-Chloro-2-((5-methyl-2H-tetrazol-2-yl)methyl)phenyl)-1-(4-(furan-2-carbonyl)piperazin-1-yl)prop-2-en-1-one] | 110 nM
4 | Cc1nnn(Cc2cc(Cl)ccc2/C=C/C(=O)N2CCC(c3nnc(C4CC4)o3)CC2)n1 [Example 96, (E)-3-(4-Chloro-2-((5-methyl-2H-tetrazol-2-yl)methyl)phenyl)-1-(4-(5-cyclopropyl-1,3,4-oxadiazol-2-yl)piperidin-1-yl)prop-2-en-1-one] | 8.3 nM
5 | Cc1nnn(Cc2cc(C(F)(F)F)ccc2/C=C/C(=O)N2CCC(Cc3noc(C)n3)CC2)n1 [Example 71, (E)-1-(4-((5-Methyl-1,2,4-oxadiazol-3-yl)methyl)piperidin-1-yl)-3-(2-((5-methyl-2H-tetrazol-2-yl)methyl)-4-(trifluoromethyl)phenyl)prop-2-en-1-one] | 6 nM
6 | Cc1nnn(Cc2cc(Cl)ccc2/C=C/C(=O)N2CC(c3nnc(C)o3)C2)n1 [Example 85, (E)-3-(4-Chloro-2-((5-methyl-2H-tetrazol-2-yl)methyl)phenyl)-1-(3-(5-methyl-1,3,4-oxadiazol-2-yl)azetidin-1-yl)prop-2-en-1-one] | 289 nM
7 | Cc1nnn(Cc2cc(Cl)ccc2/C=C/C(=O)N2CCCCC2c2nc(C(C)C)no2)n1 (racemic) [Example 30, (rac)-(E)-3-(4-Chloro-2-((5-methyl-2H-tetrazol-2-yl)methyl)phenyl)-1-(2-(3-isopropyl-1,2,4-oxadiazol-5-yl)piperidin-1-yl)prop-2-en-1-one] | 11 nM
8 | Cc1nnn(Cc2cc(C(F)(F)F)ccc2/C=C/C(=O)N2CCN(Cc3noc(C)n3)CC2)n1 [Example 93, (E)-1-(4-((5-Methyl-1,2,4-oxadiazol-3-yl)methyl)piperazin-1-yl)-3-(2-((5-methyl-2H-tetrazol-2-yl)methyl)-4-(trifluoromethyl)phenyl)prop-2-en-1-one] | 10 nM
9 | COC(=O)C1CCN(C(=O)/C=C/c2ccc(C(F)(F)F)cc2Cn2nnc(C)n2)CC1 [Example 67, (E)-Methyl 1-(3-(2-((5-methyl-2H-tetrazol-2-yl)methyl)-4-(trifluoromethyl)phenyl)acryloyl)piperidine-4-carboxylate] | 8.8 nM
10 | Cc1nnn(Cc2cc(C(F)(F)F)ccc2/C=C/C(=O)N2CCN(Cc3ccn(C)n3)CC2)n1 [Example 89, (E)-1-(4-((1-Methyl-1H-pyrazol-3-yl)methyl)piperazin-1-yl)-3-(2-((5-methyl-2H-tetrazol-2-yl)methyl)-4-(trifluoromethyl)phenyl)prop-2-en-1-one] | 3.5 nM
11 | Cc1noc(Cc2cc(Cl)ccc2/C=C/C(=O)N2CCC(Cc3nnc(C)o3)CC2)n1 [Example 21, (E)-3-(4-Chloro-2-((3-methyl-1,2,4-oxadiazol-5-yl)methyl)phenyl)-1-(4-((5-methyl-1,3,4-oxadiazol-2-yl)methyl)piperidin-1-yl)prop-2-en-1-one] | 208 nM
12 | COc1ccc(CN2CCN(C(=O)/C=C/c3ccc(Cl)cc3Cn3nnc(C)n3)CC2)nc1 [Example 140.1, (E)-3-(4-Chloro-2-((5-methyl-2H-tetrazol-2-yl)methyl)phenyl)-1-(4-((5-methoxypyridin-2-yl)methyl)piperazin-1-yl)prop-2-en-1-one] | 5.9 nM
13 | Cc1nnn(Cc2cc(Cl)ccc2/C=C/C(=O)N2CC[C@H](NC(=O)C(F)(F)F)C2)n1 [Example 49.18, (S,E)-N-(1-(3-(4-Chloro-2-((5-methyl-2H-tetrazol-2-yl)methyl)phenyl)acryloyl)pyrrolidin-3-yl)-2,2,2-trifluoroacetamide] | 130 nM
14 | Cc1nnn(Cc2cc(Cl)ccc2/C=C/C(=O)N2CCC[C@H]2c2nnc(C)o2)n1 [Example 8, (S,E)-3-(4-Chloro-2-((5-methyl-2H-tetrazol-2-yl)methyl)phenyl)-1-(2-(5-methyl-1,3,4-oxadiazol-2-yl)pyrrolidin-1-yl)prop-2-en-1-one] | 378 nM
15 | CNC(=O)[C@@H]1CC(F)(F)CN1C(=O)/C=C/c1ccc(C(F)(F)F)cc1Cn1nnc(C)n1 [Example 91, (S,E)-4,4-Difluoro-N-methyl-1-(3-(2-((5-methyl-2H-tetrazol-2-yl)methyl)-4-(trifluoromethyl)phenyl)acryloyl)pyrrolidine-2-carboxamide] | 160 nM

Continued by falling IC50, values first:

Row | IC50 | Compound
16 | 454 nM | Cc1cnn(Cc2cc(Cl)ccc2/C=C/C(=O)N2CCC(Cc3nnc(C)o3)CC2)n1 [Example 80, (E)-3-(4-Chloro-2-((4-methyl-2H-1,2,3-triazol-2-yl)methyl)phenyl)-1-(4-((5-methyl-1,3,4-oxadiazol-2-yl)methyl)piperidin-1-yl)prop-2-en-1-one]
17 | 81 nM | Cc1nnn(Cc2cc(C(F)(F)F)ccc2/C=C/C(=O)N2CCC[C@H]2CO)n1 [Example 133, (S,E)-1-(2-(Hydroxymethyl)pyrrolidin-1-yl)-3-(2-((5-methyl-2H-tetrazol-2-yl)methyl)-4-(trifluoromethyl)phenyl)prop-2-en-1-one]
18 | 62 nM | Cc1nnn(Cc2cc(Cl)ccc2/C=C/C(=O)N2CCC(O)(Cn3cc(C(=O)N(C)C)cn3)CC2)n1 [Example 15, (E)-1-((1-(3-(4-Chloro-2-((5-methyl-2H-tetrazol-2-yl)methyl)phenyl)acryloyl)-4-hydroxypiperidin-4-yl)methyl)-N,N-dimethyl-1H-pyrazole-4-carboxamide]
19 | 52 nM | CCCNC(=O)COC1CCN(C(=O)/C=C/c2ccc(Cl)cc2Cn2nnc(C)n2)CC1 [Example 49.30, (E)-2-((1-(3-(4-Chloro-2-((5-methyl-2H-tetrazol-2-yl)methyl)phenyl)acryloyl)piperidin-4-yl)oxy)-N-propylacetamide]
20 | 49 nM | CNC(=O)[C@@H]1CCCN1C(=O)/C=C/c1ccc(C(F)(F)F)cc1Cn1nnc(C)n1 [Example 90, (S,E)-N-Methyl-1-(3-(2-((5-methyl-2H-tetrazol-2-yl)methyl)-4-(trifluoromethyl)phenyl)acryloyl)pyrrolidine-2-carboxamide]
21 | 17 nM | Cc1nnn(Cc2cc(C(F)F)ccc2/C=C/C(=O)N2CCC(c3nnc(C)o3)CC2)n1 [Example 52, (E)-3-(4-(Difluoromethyl)-2-((5-methyl-2H-tetrazol-2-yl)methy)phenyl)-1-(4-(5-methyl-1,3,4-oxadiazol-2-yl)piperidin-1-yl)prop-2-en-1-one]
22 | 14 nM | Cc1nnn(Cc2cc(C(F)(F)F)ccc2/C=C/C(=O)N2CCN(Cc3coc(C)n3)C[C@H]2CO)n1 [Example 132, (S,E)-1-(2-(Hydroxymethyl)-4-((2-methyloxazol-4-yl)methyl)piperazin-1-yl)-3-(2-((5-methyl-2H-tetrazol-2-yl)methyl)-4-(trifluoromethyl)phenyl)prop-2-en-1-one]
23 | 8.1 nM | Cc1cnn(CC2CCN(C(=O)/C=C/c3ccc(Cl)cc3Cn3nnc(C)n3)CC2)n1 [Example 120, (E)-3-(4-Chloro-2-((5-methyl-2H-tetrazol-2-yl)methyl)phenyl)-1-(4-((4-methyl-2H-1,2,3-triazol-2-yl)methyl)piperidin-1-yl)prop-2-en-1-one]
24 | 6.3 nM | Cc1nnn(Cc2cc(Cl)ccc2/C=C/C(=O)N2CCC(O)(Cc3ccccc3)CC2)n1 [Example 138, (E)-1-(4-Benzyl-4-hydroxypiperidin-1-yl)-3-(4-chloro-2-((5-methyl-2H-tetrazol-2-yl)methyl)phenyl)prop-2-en-1-one-N]
25 | 4.2 nM | Cc1nnn(Cc2cc(C(F)(F)F)ccc2/C=C/C(=O)N2CCN(Cc3cnn(C)c3)C[C@H]2C)n1 [Example 70, (R,E)-3-(2-((5-Methyl-2H-tetrazol-2-yl)methyl)-4-(trifluoromethyl)phenyl)-1-(2-methyl-4-((1-methyl-1H-pyrazol-4-yl)methyl)piperazin-1-yl)prop-2-en-1-one]
26 | 3.5 nM | CCOC(=O)c1cnn(CC2(O)CCN(C(=O)/C=C/c3ccc(Cl)cc3Cn3nnc(C)n3)CC2)c1 [Example 32, (E)-Ethyl 1-((1-(3-(4-chloro-2-((5-methyl-2H-tetrazol-2-yl)methyl)phenyl)acryloyl)-4-hydroxypiperidin-4-yl)methyl)-1H-pyrazole-4-carboxylate]
27 | 2.4 nM | Cc1nnn(Cc2cc(C(F)(F)F)ccc2OCC(=O)N2CCC(CCCCCc3c[nH]nn3)CC2)n1 [Example 154, 1-(4-(5-(1H-1,2,3-Triazol-4-yl)pentyl)piperidin-1-yl)-2-(2-((5-methyl-2H-tetrazol-2-yl)methyl)-4-(trifluoromethyl)phenoxy)ethanone]
